The text below walks through data of ChEMBL document CHEMBL6103630, “Discovery of Novel 2,4,5-Trisubstituted Pyrimidine Derivatives as Potent and Selective FGFR Inhibitors against Gatekeeper Mutants for the Treatment of NSCLC” (J Med Chem, 2025).

The test system of experiment [1] is NCI-H1581. As to the kind of experiment: cells. Particulars: Homo sapiens, NCI-H1581, 48 h.
Description: Antiproliferative activity against human NCI-H1581 cells assessed as inhibition of cell proliferation incubated for 48 hrs by MTT assay
The next experiment relates to A549. As to the kind of experiment: cells. The note with it: Homo sapiens, A549, 48 h.
For experiment [2], the target named is Fibroblast growth factor receptor 1 (Homo sapiens) (UniProt P11362). As to the kind of experiment: Reversible inhibition of FGFR1 (unknown origin) phosphorylation in human NCI-H1581 cells at 1 uM preincubated with compound for 2 hrs followed by compound washout and measured after 0.5 hrs by Western blotting analysis. The format is cell-based. (In general: In western blotting, separated proteins are transferred to a membrane and probed.)

Experiment [3] has the same target. Particulars: dose 1000.0 nM.
Description: Inhibition of FGFR1 (unknown origin) at 1000 nM by caliper mobility shift assay relative to control
Experiment [4] concerns NCI-H1581. Briefly: Antitumor activity against human NCI-H1581 cells xenografted in BALB/c nude mouse assessed as tumor growth inhibition at 60 mg/kg relative to control. The format is functional. Particulars: read-out: TGI. Background: A xenograft is tissue or cells of one species grown in another, often human tumour cells in immunodeficient mice.

Molecules are shown by their SMILES. Active and inactive are the calls of the source. The rule behind the calls is not given here.

Chain of Fibroblast growth factor receptor 1 (Homo sapiens) (P11362 22-822 limits assumed): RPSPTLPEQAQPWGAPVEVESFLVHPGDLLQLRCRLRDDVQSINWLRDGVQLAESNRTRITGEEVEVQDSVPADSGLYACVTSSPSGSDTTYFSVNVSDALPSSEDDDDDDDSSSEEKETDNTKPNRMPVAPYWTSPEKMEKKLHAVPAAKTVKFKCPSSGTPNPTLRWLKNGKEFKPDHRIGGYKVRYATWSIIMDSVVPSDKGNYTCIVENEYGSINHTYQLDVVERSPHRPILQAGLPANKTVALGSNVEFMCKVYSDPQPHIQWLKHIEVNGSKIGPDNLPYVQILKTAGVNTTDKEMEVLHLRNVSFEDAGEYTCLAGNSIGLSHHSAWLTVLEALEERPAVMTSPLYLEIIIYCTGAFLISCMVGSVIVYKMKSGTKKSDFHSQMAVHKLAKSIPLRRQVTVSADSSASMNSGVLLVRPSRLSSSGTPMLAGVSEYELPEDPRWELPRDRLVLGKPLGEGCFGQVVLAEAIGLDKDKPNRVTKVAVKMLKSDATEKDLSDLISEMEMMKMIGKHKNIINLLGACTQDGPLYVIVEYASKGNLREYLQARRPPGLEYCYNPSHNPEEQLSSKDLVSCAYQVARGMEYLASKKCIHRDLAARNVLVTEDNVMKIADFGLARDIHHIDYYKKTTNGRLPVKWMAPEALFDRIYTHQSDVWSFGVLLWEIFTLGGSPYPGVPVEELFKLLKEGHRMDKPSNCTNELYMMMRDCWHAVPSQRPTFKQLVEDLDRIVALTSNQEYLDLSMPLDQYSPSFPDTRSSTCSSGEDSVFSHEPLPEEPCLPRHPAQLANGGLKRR
Description for A549: Antiproliferative activity against human A549 cells assessed as inhibition of cell proliferation incubated for 48 hrs by MTT assay

The term IC50 denotes the concentration needed to halve the response being measured. Low readings indicate higher potency, high ones lower potency. Consider `C=CC(=O)Nc1ccc(Nc2nc(Nc3ccc(N4CCC(N(C)C)CC4)c(OC)c3)ncc2Cl)cc1Cl`, for which the IC50 was 120 nM with NCI-H1581 [1] and 12100 nM in the experiment with A549.
In general, inhibition refers to the percentage by which the read-out fell short of the control. Turning to `Cc1ccc(C(=O)Nc2ccc(CN3CCN(C)CC3)c(C(F)(F)F)c2)cc1C#Cc1cnc2cccnn12`, the inhibition entry in experiment [2] was “inactive”.
For the compound `C=CC(=O)Nc1ccc(Nc2nc(Nc3ccc(N4CCN(C)CC4)nc3)ncc2Cl)cc1Cl`, the 50% inhibitory concentration (IC50) in the experiment on NCI-H1581 [1] came out at 470 nM; in the experiment with A549, 3180 nM.
`C=CC(=O)Nc1ccc(Nc2nc(Nc3ccc(N4C[C@@H](C)N[C@@H](C)C4)cc3)ncc2Cl)cc1Cl`: the IC50 with NCI-H1581 [1] came to 210 nM; with A549, 1180 nM.
For the compound `C=CC(=O)Nc1ccc(Nc2nc(Nc3ccc(N4CCN(C)CC4)c(F)c3)ncc2Cl)cc1Cl`, the 50% inhibitory concentration (IC50) is 130 nM with NCI-H1581 [1] and 4150 nM in the experiment with A549.
With `C=CC(=O)Nc1ccc(Nc2nc(Nc3ccc(N4CCN(CC)CC4)c(OC)c3)ncc2Cl)cc1Cl`, the values for the 50% inhibitory concentration (IC50) in the experiment with NCI-H1581 [1] and with A549 were 170 nM and 9030 nM, respectively.
`C=CC(=O)Nc1ccccc1Nc1nc(Nc2ccc(N3CCN(C)CC3)cc2)ncc1Cl` returned an inhibition in experiment [3] of 94.9%.
Regarding `C=CC(=O)N1CC[C@H](n2nc(C#Cc3cc(OC)cc(OC)c3)c3c(N)ncnc32)C1` [FUTIBATINIB], the inhibition in vivo at 60 mg/kg with NCI-H1581 [4] is 54%. In addition, the IC50 was 5 nM in the experiment with NCI-H1581 [1] and above 20000 nM with A549.
